Earlier results on one molecule are cited in patent publication US20260007780A1, “LIQUID VEHICLE FORMULATION FOR ENTEROGRAPHY EXAMINATION” (priority 2008, published 2026).

In the case of `CC(=O)Nc1c(I)c(NC(C)=O)c(I)c(C(=O)O)c1I` [Diatrizoic acid, diatrizoic acid], the solubility in water entry was “practically insoluble in water”.
